Drawing on the NIST ThermoML archive (doi:10.1016/j.jct.2015.04.021), this text covers mass density for 2 compounds.

The nature of this series: xn = mol fraction of the nth substance listed. The settings on record: 101.3 kPa, Liquid, Pycnometric method.

The mass density is the mass of a sample divided by its volume.

Numbers after ± are expanded uncertainties.

`CC(=O)CCC(=O)O` [4-oxopentanoic acid] + C[N+](C)(C)CCO.[Cl-]: the mass density reads like this: (303.15 K, x1 = 0.75) 1134.6 ± 1.1 kg/m3; (303.15 K, x1 = 0.8) 1134.1 ± 1.1 kg/m3; (303.15 K, x1 = 0.833) 1133.7 ± 1.1 kg/m3; (313.15 K, x1 = 0.75) 1127.6 ± 1.1 kg/m3; (313.15 K, x1 = 0.8) 1127.3 ± 1.1 kg/m3; (313.15 K, x1 = 0.833) 1127 ± 1.1 kg/m3. Moreover, the mass density runs as follows: (323.15 K, x1 = 0.75) 1120.9 ± 1.2 kg/m3; (323.15 K, x1 = 0.8) 1120.4 ± 1.2 kg/m3; (323.15 K, x1 = 0.833) 1120.2 ± 1.2 kg/m3; (333.15 K, x1 = 0.75) 1113.8 ± 1.2 kg/m3; (333.15 K, x1 = 0.8) 1113.1 ± 1.2 kg/m3; (333.15 K, x1 = 0.833) 1113 ± 1.2 kg/m3.
For the compound `OCc1ccco1` [2-hydroxymethylfuran] + C[N+](C)(C)CCO.[Cl-], the mass density is, setting by setting: (303.15 K, x1 = 0.75) 1131.8 ± 1.3 kg/m3; (303.15 K, x1 = 0.8) 1131.5 ± 1.3 kg/m3; (303.15 K, x1 = 0.833) 1130.9 ± 1.3 kg/m3; (313.15 K, x1 = 0.75) 1125.2 ± 1.3 kg/m3; (313.15 K, x1 = 0.8) 1124.3 ± 1.3 kg/m3; (313.15 K, x1 = 0.833) 1123.8 ± 1.3 kg/m3. The mass density is 1118.6 ± 1.3 kg/m3 (323.15 K, x1 = 0.75); 1117.1 ± 1.3 kg/m3 (323.15 K, x1 = 0.8); 1116.6 ± 1.3 kg/m3 (323.15 K, x1 = 0.833); 1112 ± 1.3 kg/m3 (333.15 K, x1 = 0.75); 1109.9 ± 1.3 kg/m3 (333.15 K, x1 = 0.8); 1109.5 ± 1.3 kg/m3 (333.15 K, x1 = 0.833).
